# Source: ChEMBL document CHEMBL5291721, “A preclinical secondary pharmacology resource illuminates target-adverse drug reaction associations of marketed drugs” (Nat Commun, 2023)
# Assays:
# [1] = molecular target: T1, Muscarinic acetylcholine receptor M1 (Homo sapiens, UniProt P11229); format: functional, cell-based
# T1 sequence (P11229 whole entry): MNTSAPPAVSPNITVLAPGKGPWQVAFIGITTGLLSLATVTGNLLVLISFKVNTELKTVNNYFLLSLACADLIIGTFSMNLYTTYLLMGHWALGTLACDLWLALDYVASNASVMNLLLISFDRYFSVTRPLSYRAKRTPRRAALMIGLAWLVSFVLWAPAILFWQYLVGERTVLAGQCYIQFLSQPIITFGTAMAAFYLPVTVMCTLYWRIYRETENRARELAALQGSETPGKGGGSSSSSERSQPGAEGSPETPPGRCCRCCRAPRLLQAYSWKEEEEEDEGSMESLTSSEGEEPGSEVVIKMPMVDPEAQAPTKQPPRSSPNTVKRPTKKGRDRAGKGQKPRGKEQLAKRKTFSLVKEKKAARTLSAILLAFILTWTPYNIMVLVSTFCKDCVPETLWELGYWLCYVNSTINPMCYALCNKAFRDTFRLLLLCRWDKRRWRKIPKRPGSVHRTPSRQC
# [2] = molecular target: T2, Muscarinic acetylcholine receptor M2 (Homo sapiens, UniProt P08172)
# T2 sequence (P08172 whole entry): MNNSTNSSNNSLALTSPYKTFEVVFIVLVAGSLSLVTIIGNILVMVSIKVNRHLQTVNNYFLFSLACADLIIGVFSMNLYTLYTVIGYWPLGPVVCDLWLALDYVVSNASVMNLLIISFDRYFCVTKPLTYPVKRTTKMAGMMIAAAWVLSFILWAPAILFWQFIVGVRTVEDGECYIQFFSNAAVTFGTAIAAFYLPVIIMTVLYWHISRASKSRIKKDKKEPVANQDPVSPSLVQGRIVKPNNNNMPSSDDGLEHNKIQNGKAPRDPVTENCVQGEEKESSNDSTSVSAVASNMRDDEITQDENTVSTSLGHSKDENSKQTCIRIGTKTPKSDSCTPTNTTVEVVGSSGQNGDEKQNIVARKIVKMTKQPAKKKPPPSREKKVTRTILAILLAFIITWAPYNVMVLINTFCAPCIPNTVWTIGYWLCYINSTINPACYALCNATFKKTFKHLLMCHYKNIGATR
# D(3) dopamine receptor = D(3) dopamine receptor (Homo sapiens, UniProt P35462)
# [3] = molecular target: T3, Amine oxidase [flavin-containing] A (Homo sapiens, UniProt P21397); format: functional
# T3 sequence (P21397 whole entry): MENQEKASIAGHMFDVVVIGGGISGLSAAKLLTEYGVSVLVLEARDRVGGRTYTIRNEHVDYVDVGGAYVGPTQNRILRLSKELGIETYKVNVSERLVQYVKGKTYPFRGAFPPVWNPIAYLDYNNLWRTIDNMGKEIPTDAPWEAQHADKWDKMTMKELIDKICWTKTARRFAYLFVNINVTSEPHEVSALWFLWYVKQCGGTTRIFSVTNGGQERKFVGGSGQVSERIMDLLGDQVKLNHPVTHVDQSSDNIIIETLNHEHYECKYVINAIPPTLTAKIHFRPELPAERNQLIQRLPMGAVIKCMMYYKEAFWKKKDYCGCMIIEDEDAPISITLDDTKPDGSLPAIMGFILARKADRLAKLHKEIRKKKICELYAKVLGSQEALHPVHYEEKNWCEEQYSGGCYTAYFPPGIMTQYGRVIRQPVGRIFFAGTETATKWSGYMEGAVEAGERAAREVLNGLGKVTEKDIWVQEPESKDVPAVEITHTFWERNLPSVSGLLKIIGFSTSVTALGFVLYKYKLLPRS
# [4] = molecular target: Sodium-dependent dopamine transporter (Homo sapiens, UniProt Q01959)
# Thromboxane A2 receptor = molecular target: T4, Thromboxane A2 receptor (Homo sapiens, UniProt P21731); format: functional, cell-based
# T4 sequence (P21731 whole entry): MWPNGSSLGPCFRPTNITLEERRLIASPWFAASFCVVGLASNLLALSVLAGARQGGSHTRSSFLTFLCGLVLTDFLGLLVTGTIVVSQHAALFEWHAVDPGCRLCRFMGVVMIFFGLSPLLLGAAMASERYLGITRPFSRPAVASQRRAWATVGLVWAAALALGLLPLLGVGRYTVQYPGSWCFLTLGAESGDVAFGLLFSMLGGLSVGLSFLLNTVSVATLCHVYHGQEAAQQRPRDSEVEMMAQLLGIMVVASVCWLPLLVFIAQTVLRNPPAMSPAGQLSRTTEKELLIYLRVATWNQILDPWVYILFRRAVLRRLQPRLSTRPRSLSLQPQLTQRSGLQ
# [5] = molecular target: Beta-2 adrenergic receptor (Homo sapiens, UniProt P07550)
# [6] = molecular target: Glutamate receptor ionotropic, NMDA 1 (Rattus norvegicus, UniProt P35439)
# Histamine H2 receptor = Histamine H2 receptor (Homo sapiens, UniProt P25021); format: functional, cell-based
# [7] = molecular target: T5, 5-hydroxytryptamine receptor 1A (Homo sapiens, UniProt P08908); format: functional, cell-based
# T5 sequence (P08908 whole entry): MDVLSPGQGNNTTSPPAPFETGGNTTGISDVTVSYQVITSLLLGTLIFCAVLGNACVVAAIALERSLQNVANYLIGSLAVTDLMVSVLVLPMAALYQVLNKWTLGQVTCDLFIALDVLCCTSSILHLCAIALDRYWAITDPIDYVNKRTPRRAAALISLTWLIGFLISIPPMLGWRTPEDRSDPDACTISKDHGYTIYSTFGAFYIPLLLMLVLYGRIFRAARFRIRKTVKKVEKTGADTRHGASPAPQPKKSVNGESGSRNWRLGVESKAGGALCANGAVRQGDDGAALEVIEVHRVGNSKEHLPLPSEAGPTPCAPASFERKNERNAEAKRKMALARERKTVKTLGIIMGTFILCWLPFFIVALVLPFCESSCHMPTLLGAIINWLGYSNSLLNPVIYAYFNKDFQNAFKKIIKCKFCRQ
# [8] = molecular target: Sodium-dependent serotonin transporter (Homo sapiens, UniProt P31645)
# Also: assay procedure not described here.
# Sodium-dependent dopamine transporter, sequence (Q01959 whole entry): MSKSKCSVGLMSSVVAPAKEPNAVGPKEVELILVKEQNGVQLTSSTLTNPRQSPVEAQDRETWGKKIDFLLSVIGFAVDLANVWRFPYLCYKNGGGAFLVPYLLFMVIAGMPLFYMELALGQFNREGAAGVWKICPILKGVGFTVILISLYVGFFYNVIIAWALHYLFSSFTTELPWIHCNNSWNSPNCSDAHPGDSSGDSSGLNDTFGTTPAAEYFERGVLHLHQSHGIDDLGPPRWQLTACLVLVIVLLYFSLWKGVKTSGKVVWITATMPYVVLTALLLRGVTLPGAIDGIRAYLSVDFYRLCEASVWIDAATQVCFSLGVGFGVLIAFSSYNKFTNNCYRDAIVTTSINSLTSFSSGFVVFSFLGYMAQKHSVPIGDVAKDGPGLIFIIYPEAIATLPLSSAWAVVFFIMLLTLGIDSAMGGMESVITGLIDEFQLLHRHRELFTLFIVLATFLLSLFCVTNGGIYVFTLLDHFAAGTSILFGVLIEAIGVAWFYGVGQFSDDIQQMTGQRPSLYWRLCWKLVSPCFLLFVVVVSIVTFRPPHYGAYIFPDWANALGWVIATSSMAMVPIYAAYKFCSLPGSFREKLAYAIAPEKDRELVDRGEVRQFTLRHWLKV
# D(3) dopamine receptor, sequence (P35462 whole entry): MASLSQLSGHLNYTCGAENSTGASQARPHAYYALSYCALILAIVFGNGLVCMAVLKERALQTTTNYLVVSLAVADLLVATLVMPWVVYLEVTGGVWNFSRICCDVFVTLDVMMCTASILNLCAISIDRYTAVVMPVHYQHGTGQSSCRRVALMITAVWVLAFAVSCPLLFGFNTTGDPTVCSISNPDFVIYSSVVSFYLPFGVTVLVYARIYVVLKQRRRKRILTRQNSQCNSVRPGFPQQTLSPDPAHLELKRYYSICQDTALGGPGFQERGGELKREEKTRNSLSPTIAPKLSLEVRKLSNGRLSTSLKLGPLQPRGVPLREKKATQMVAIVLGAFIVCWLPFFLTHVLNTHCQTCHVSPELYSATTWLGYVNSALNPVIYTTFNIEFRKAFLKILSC
# Beta-2 adrenergic receptor, sequence (P07550 whole entry): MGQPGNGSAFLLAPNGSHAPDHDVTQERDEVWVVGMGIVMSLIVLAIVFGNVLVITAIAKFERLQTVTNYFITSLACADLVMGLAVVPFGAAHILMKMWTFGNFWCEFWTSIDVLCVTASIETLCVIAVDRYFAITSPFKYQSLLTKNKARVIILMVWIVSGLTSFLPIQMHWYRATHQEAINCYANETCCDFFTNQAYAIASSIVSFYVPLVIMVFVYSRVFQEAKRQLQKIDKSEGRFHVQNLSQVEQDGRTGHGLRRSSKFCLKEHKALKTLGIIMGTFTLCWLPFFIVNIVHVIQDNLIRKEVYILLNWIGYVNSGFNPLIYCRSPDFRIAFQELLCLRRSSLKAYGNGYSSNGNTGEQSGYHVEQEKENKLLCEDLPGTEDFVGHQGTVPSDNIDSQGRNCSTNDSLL
# Histamine H2 receptor, sequence (P25021 whole entry): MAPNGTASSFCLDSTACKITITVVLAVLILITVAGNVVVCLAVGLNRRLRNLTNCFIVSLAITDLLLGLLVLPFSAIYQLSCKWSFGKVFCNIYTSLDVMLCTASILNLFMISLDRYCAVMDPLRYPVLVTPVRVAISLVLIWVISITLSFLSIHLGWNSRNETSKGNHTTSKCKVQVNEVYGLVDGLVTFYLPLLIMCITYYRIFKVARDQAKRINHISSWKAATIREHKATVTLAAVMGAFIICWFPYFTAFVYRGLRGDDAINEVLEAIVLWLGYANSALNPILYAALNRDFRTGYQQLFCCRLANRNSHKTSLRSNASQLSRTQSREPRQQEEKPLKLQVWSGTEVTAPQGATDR
# Sodium-dependent serotonin transporter, sequence (P31645 whole entry): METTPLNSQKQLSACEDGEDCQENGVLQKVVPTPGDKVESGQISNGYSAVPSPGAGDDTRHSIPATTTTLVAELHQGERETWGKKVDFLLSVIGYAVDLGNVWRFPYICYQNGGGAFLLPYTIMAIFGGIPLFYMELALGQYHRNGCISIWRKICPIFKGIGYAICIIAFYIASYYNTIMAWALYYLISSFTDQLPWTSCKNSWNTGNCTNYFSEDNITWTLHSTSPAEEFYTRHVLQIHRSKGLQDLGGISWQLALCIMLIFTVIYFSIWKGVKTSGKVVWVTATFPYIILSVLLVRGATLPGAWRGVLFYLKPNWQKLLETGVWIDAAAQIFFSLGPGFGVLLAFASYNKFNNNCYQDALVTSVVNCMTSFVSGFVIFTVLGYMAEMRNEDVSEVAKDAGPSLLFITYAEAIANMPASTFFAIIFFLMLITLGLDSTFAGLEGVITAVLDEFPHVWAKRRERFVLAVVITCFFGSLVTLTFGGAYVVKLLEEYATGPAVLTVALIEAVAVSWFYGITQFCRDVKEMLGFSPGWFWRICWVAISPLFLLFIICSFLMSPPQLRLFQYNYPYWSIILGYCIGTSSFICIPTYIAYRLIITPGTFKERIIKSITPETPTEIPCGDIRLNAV
Compound,AC50 [1],AC50 [2],AC50 (D(3) dopamine receptor),AC50 [3],AC50 [4],AC50 (Thromboxane A2 receptor),AC50 [5],AC50 [6],AC50 (Histamine H2 receptor),AC50 [7],AC50 [8]
N=C(N)NCC1COc2ccccc2O1 (centres undefined) [GUANOXAN],> 30 µM,> 30 µM,8.54 µM,> 30 µM,> 30 µM,19.9 µM,–,–,–,–,–
CC(C)(Oc1ccc(Cl)cc1)C(=O)NC(=O)NCN1CCOCC1 [PLAFIBRIDE],> 30 µM,> 30 µM,> 30 µM,> 30 µM,> 30 µM,> 30 µM,–,–,–,–,–
C[C@]12CC[C@@H]3c4ccc(OC(=O)N(CCCl)CCCl)cc4CC[C@H]3[C@@H]1CC[C@@H]2OP(=O)(O)O [ESTRAMUSTINE PHOSPHATE],> 30 µM,> 30 µM,> 30 µM,> 30 µM,> 30 µM,> 30 µM,–,–,–,–,–
CC#CC(=O)N1CCC[C@H]1c1nc(-c2ccc(C(=O)Nc3ccccn3)cc2)c2c(N)nccn12 [ACALABRUTINIB],> 30 µM,> 30 µM,> 30 µM,> 30 µM,> 30 µM,> 30 µM,–,–,–,–,–
CC1=C(C/C=C(\C)CCC[C@H](C)CCC[C@H](C)CCCC(C)C)C(=O)c2ccccc2C1=O [PHYTONADIONE],> 30 µM,> 30 µM,> 30 µM,> 30 µM,> 30 µM,> 30 µM,–,–,–,–,–
CN1CCC(N(Cc2cccs2)c2ccccc2)CC1 [THENALIDINE],> 30 µM,0.699 µM,4.46 µM,> 30 µM,1.61 µM,> 30 µM,–,–,–,–,–
CCCCCCO[C@@H](C)c1cccc(-c2csc(NC(=O)c3cc(Cl)c(/C=C(\C)C(=O)O)c(Cl)c3)n2)c1OC [LUSUTROMBOPAG],> 30 µM,> 30 µM,8.41 µM,> 30 µM,> 10 µM,14.2 µM,–,–,–,–,–
OC[C@H]1NC[C@H](O)[C@@H](O)[C@H]1O,> 30 µM,> 30 µM,> 30 µM,> 30 µM,> 30 µM,> 30 µM,–,–,–,–,–
CCCCCCCCCCCCCCCC(=O)OC[C@H](COP(=O)([O-])OCC[N+](C)(C)C)OC(=O)CCCCCCCCCCCCCCC [COLFOSCERIL PALMITATE],> 30 µM,> 30 µM,> 30 µM,> 30 µM,> 30 µM,> 30 µM,–,–,–,–,–
CN(C)CCN(Cc1ccccc1)c1ccccn1 [TRIPELENNAMINE],> 30 µM,4.72 µM,–,> 30 µM,0.619 µM,> 30 µM,> 30 µM,> 10 µM,> 10 µM,> 10 µM,0.209 µM
CCCCCCCC/C=C\CCCCCCCC(=O)O [OLEIC ACID],> 30 µM,> 30 µM,> 30 µM,> 30 µM,> 30 µM,25.3 µM,–,–,–,–,–
NC(=O)C1(N2CCCCC2)CCN(CCCC(=O)c2ccc(F)cc2)CC1 [PIPAMPERONE],> 30 µM,> 30 µM,1.77 µM,> 30 µM,2.92 µM,> 30 µM,–,–,–,–,–
Cc1cc(C)cc(OCC2CNC(=O)O2)c1 (centres undefined) [METAXALONE],> 30 µM,> 30 µM,> 30 µM,15.4 µM,> 30 µM,> 30 µM,–,–,–,–,–
CC(C)NC[C@H](O)COc1ccc(O)cc1 [PRENALTEROL],> 30 µM,> 30 µM,> 30 µM,> 30 µM,> 30 µM,> 30 µM,–,–,–,–,–
O=C(O)[C@H](O)[C@@H](O)[C@H](O)[C@H](O)CO [GLUCONIC ACID],> 30 µM,> 30 µM,> 30 µM,> 30 µM,> 30 µM,> 30 µM,–,–,–,–,–
